Test results from patent US9662327B2 (AGIOS PHARMACEUTICALS, INC, priority 2011, dated 2017).

target: IDH1 R132H (Homo sapiens (Human), UniProt O75874, R132H); assay: Assays for IDH1 R132H Inhibitors (NADPH/aKG, resazurin detection); type: biochemical; conditions: IDH1 R132H enzyme, Table 2; read-out: IDHR132H Activity
Outline: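 Mutant enzyme in 150 mM NaCl, 10 mM MgCl2, 20 mM Tris pH 7.5, 0.03% BSA; compound in DMSO added to substrate mix of 8 uM NADPH and 2 mM aKG. Reaction ran 50 min at room temperature, then resazurin detection mix (30 μM) added for 5 min at room temperature.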

IDH1 R132H, sequence (O75874 whole entry R132H): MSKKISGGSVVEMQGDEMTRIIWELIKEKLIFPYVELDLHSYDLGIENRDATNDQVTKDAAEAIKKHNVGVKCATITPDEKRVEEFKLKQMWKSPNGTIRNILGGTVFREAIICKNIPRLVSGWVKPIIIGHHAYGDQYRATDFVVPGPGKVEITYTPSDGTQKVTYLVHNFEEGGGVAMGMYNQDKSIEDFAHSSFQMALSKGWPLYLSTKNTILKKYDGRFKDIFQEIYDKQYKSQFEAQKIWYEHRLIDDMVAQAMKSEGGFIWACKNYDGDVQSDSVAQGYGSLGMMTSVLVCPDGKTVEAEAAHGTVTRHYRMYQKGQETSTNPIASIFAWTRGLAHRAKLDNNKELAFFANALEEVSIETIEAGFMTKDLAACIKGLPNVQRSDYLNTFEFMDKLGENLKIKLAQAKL

`CCC1CN(c2nc(C(C)C)c3c(c2C#N)CC(C)(C)OC3)CCN1C(=O)c1ccoc1` (centres unmarked) [Compound 172, 6-(3-ethyl-4-(furan-3-carbonyl)piperazin-1-yl)-8-isopropyl-3,3-dimethyl-3,4-dihydro-1H-pyrano[3,4-c]pyridine-5-carbonitrile] and `CC1(C)Cc2c(C#N)c(N3CCN(C(=O)c4ccoc4)C(C)(C)C3)nc(C3CC3)c2CO1` [Compound 318, 8-cyclopropyl-6-(4-(furan-3-carbonyl)-3,3-dimethylpiperazin-1-yl)-3,3-dimethyl-3,4-dihydro-1H-pyrano[3,4-c]pyridine-5-carbonitrile] fall in the same range of IC50: 1000 to 10000 nM for the first, 1000 to 10000 nM for the second.

`CCCC(=O)N1CCN(c2nc(C3CC3)c3c(c2C#N)CC(C)(C)OC3)C[C@H]1C(C)C` [Compound 383] and `CSCCC(=O)N1CCN(c2nc(C3CC3)c3c(c2C#N)CC(C)(C)OC3)C[C@H]1C(C)C` [Compound 269, (R)-8-cyclopropyl-6-(3-isopropyl-4-(3-(methylthio)propanoyl)piperazin-1-yl)-3,3-dimethyl-3,4-dihydro-1H-pyrano[3,4-c]pyridine-5-carbonitrile] cannot be ordered by IC50: < 500 nM for the first, < 500 nM for the second.

`CC[C@@H]1CN(c2nc(C3CC3)c3c(c2C#N)CC(C)(C)OC3)CCN1C(=O)Cc1cccc(OC)c1` [Compound 296] and `CC(=O)N1CCN(c2nc(C3CC3)c3c(c2C#N)CC(C)(C)OC3)C[C@H]1C(C)C` [Compound 352] fall in the same range of IC50: 500 to 1000 nM for the first, 500 to 1000 nM for the second.

`N#Cc1c(N2CCN(C(=O)c3c[nH]c4ccccc34)CC2)nc(C2CCCCC2)c2c1CCOC2` [Compound 118, 6-(4-(1H-indole-3-carbonyl)piperazin-1-yl)-8-cyclohexyl-3,4-dihydro-1H-pyrano[3,4-c]pyridine-5-carbonitrile] and `C[C@@H]1CN(c2nc(C3CCCCC3)c3c(c2C#N)CCOC3)CCN1C(=O)Cc1cccc(F)c1` [Compound 191, (R)-8-cyclohexyl-6-(4-(2-(3-fluorophenyl)acetyl)-3-methylpiperazin-1-yl)-3,4-dihydro-1H-pyrano[3,4-c]pyridine-5-carbonitrile] fall in the same range of IC50: 1000 to 10000 nM for the first, 1000 to 10000 nM for the second.

`CC(C)[C@@H]1CN(c2nc(C3CCCCC3)c3c(c2C#N)CCOC3)CCN1C(=O)c1ccoc1` [Compound 183, (R)-8-cyclohexyl-6-(4-(furan-3-carbonyl)-3-isopropylpiperazin-1-yl)-3,4-dihydro-1H-pyrano[3,4-c]pyridine-5-carbonitrile] and `C[C@@H]1CN(c2nc(C3CCCCC3)c3c(c2C#N)CCOC3)CCN1C(=O)c1ccoc1` [Compound 160, (R)-8-cyclohexyl-6-(4-(furan-3-carbonyl)-3-methylpiperazin-1-yl)-3,4-dihydro-1H-pyrano[3,4-c]pyridine-5-carbonitrile] fall in the same range of IC50: 1000 to 10000 nM for the first, 1000 to 10000 nM for the second.

`CCS(=O)(=O)N1CCN(c2nc(C3CC3)c3c(c2C#N)CC(C)(C)OC3)C[C@H]1C(C)C` [Compound 391, (R)-8-cyclopropyl-6-(4-(ethylsulfonyl)-3-isopropylpiperazin-1-yl)-3,3-dimethyl-3,4-dihydro-1H-pyrano[3,4-c]pyridine-5-carbonitrile] and `C[C@@H]1CN(c2nc(C3CCCCC3)c3c(c2C#N)CCOC3)CCN1C(=O)c1ccco1` [Compound 162, (R)-8-cyclohexyl-6-(4-(furan-2-carbonyl)-3-methylpiperazin-1-yl)-3,4-dihydro-1H-pyrano[3,4-c]pyridine-5-carbonitrile] fall in the same range of IC50: 1000 to 10000 nM for the first, 1000 to 10000 nM for the second.

`C[C@@H]1CN(c2nc(C3CCCCC3)c3c(c2C#N)CCOC3)CCN1C(=O)Nc1ccc(F)cc1` [Compound 281, (R)-4-(5-cyano-8-cyclohexyl-3,4-dihydro-1H-pyrano[3,4-c]pyridin-6-yl)-N-(4-fluorophenyl)-2-methylpiperazine-1-carboxamide] and `CC(C)c1nc(N2CCN(C(=O)NC3CCCCC3)CC2)c(C#N)c2c1CCCC2` [Compound 115, 4-(4-cyano-1-isopropyl-5,6,7,8-tetrahydroisoquinolin-3-yl)-N-cyclohexylpiperazine-1-carboxamide] fall in the same range of IC50: 1000 to 10000 nM for the first, 1000 to 10000 nM for the second.
